Data on three compounds can be found in ChEMBL document CHEMBL1201862, “PubChem BioAssay data set” (2004).

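Each compound was tested at five concentrations against cells in 96-well plates for 48 hours. GI50: concentration for 50% inhibition of growth.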 Active and inactive are the calls of the source. No stated cut-off is given here; in the data, active = GI50 up to about 1.1 µM and inactive = higher. A value given as a limit tells only on which side of the number the result lay.

Test systems include SF-295; MCF7; MDA-MB-435; HL-60; MDA-N; A549; OVCAR-8; MOLT-4; EKVX; COLO 205; NCI-H522; ACHN; KM12; SF-539; HOP-62; 786-0; SN12C; SNB-75; Hs-578T; LOX IMVI.
Holding throughout (experiment): growth of human tumour cells (NCI), 48 h

With `CN(C)CC1CCC(CN(C)C)C1=O` (stereo not given), the GI50 with SF-295 is 18.3 µM (inactive); with MCF7 it was 0.458 µM (active); with MDA-MB-435, 20 µM (inactive); in the assay on HL-60, 0.294 µM (active); in the assay on MDA-N, 2.01 µM (inactive); in the assay on A549 it was 18.7 µM (inactive). Further, the GI50 was 3.31 µM (inactive) with OVCAR-8; 0.594 µM (active) in the assay with MOLT-4; 4.53 µM (inactive) with EKVX; 0.608 µM (active) in the assay on COLO 205; 0.114 µM (active) with NCI-H522; 4.7 µM (inactive) in the assay with ACHN. In addition, the GI50 was 10.3 µM (inactive) in the assay on KM12; 18.4 µM (inactive) in the assay on SF-539; > 52.5 µM (inactive) in the assay with HOP-62; 1.93 µM (inactive) in the assay on 786-0; 6.89 µM (inactive) in the assay with SN12C; 20.7 µM (inactive) with SNB-75. In addition, the GI50 in the assay with Hs-578T is 3.06 µM (inactive); with LOX IMVI, 4.54 µM (inactive).
Take `CN(CCCN(C)Cc1ccc(Cl)c(Cl)c1)CCN1CCCC1`: the GI50 was 21.7 µM (inactive) in the assay on SF-295; 18.4 µM (inactive) with MCF7; 3.33 µM (inactive) in the assay on MDA-MB-435; 23.4 µM (inactive) in the assay on HL-60; 4.32 µM (inactive) in the assay on MDA-N; 19.1 µM (inactive) with A549. The GI50 in the assay on OVCAR-8 is 29.5 µM (inactive); with MOLT-4 it was 6.27 µM (inactive); in the assay on EKVX, 36.3 µM (inactive); in the assay with COLO 205 it was 9.35 µM (inactive); in the assay with NCI-H522, 16 µM (inactive); with ACHN it was 27.8 µM (inactive). Moreover, the GI50 is 30.7 µM (inactive) with KM12; 16.7 µM (inactive) in the assay with SF-539; 26.5 µM (inactive) with HOP-62; 13.5 µM (inactive) with 786-0; 37.8 µM (inactive) in the assay with SN12C; 19.1 µM (inactive) in the assay on SNB-75. For the same compound, the GI50 in the assay with Hs-578T is 17.7 µM (inactive); with LOX IMVI, 14.4 µM (inactive).
With `CCOC(=O)c1cn2c(ccc3sc4ccccc4c(=O)c32)n1`, the GI50 in the assay on SF-295 is > 100 µM (inactive); in the assay with MCF7 it was 84.3 µM (inactive); in the assay with MDA-MB-435, > 100 µM (inactive); in the assay on HL-60, > 100 µM (inactive); in the assay on MDA-N, > 100 µM (inactive); in the assay with A549, > 100 µM (inactive). In addition, the GI50 with OVCAR-8, with MOLT-4, with EKVX, in the assay on COLO 205, with NCI-H522 and with ACHN was > 100 µM (inactive) throughout. Further, the GI50 with KM12, in the assay with SF-539, with HOP-62, in the assay with 786-0, with SN12C and in the assay with SNB-75 was > 100 µM (inactive) each time. Also, the GI50 with Hs-578T and with LOX IMVI was > 100 µM (inactive) throughout.
